In patent US6479435B1, “Diaryl ethers and processes for their preparation and herbicidal and desiccant compositions containing them” (ISK Americas Incorporated, priority 1997, dated 2002):

Experiments:
Type in all cases: in vivo
[1] = tested on: soybean (Glycine max L., var. Pella 86, SOY); assay: Pre-emerge greenhouse test, crop damage rating; set-up: key to SOY crop damage rating: 0 = no damage, 100 = complete death of all plants; conditions: 14 days after application, rating scale 0-100
Summary of the method: (§1)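 Seeds sown in sandy loam one day before track-sprayer application of acetone solutions at 125–1000 g ai/ha (187 l/ha), then surface-watered to incorporate and bottom-watered. Injury scored visually at 14 days on a 0–100 scale (0 no damage, 100 complete death).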

[2] = tested on: green foxtail (Setaria viridis, SETVI); assay: Post-emerge greenhouse herbicide test, phytotoxicity rating; conditions: 14 days after application, scale 0-100
Summary of the method: (§2)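 Plants at the 2-3 leaf stage, sown 8-21 days earlier, were track-sprayed post-emergence with compound in acetone plus 0.25% v/v non-ionic surfactant at 63-1000 g ai/ha (187 l/ha). Damage was rated at 14 days on a 0-100 scale (0 none, 100 all plants dead), for both crop injury and weed control.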

[3] = tested on: ivyleaf morningglory (Ipomoea hederacea, IPOHE); assay: as above; conditions: 14 days after application, scale 0-100
Summary of the method: as §2

[4] = tested on: velvetleaf (Abutilon theophrasti, ABUTH); assay: as above; conditions: 14 days after application, scale 0-100
Summary of the method: as §2

[5] = tested on: barnyardgrass (Echinochloa crusgalli, ECHCG); assay: as above; conditions: 14 days after application, scale 0-100
Summary of the method: as §2

[6] = tested on: lambsquarters (Chenopodium album, CHEAL); assay: as above; conditions: 14 days after application, scale 0-100
Summary of the method: as §2

[7] = tested on: large crabgrass (Digitaria sanguinalis, DIGSA); assay: as above; conditions: 14 days after application, scale 0-100
Summary of the method: as §2

[8] = tested on: redroot pigweed (Amaranthus retroflexus, AMARE); assay: as above; conditions: 14 days after application, scale 0-100
Summary of the method: as §2

[9] = tested on: Johnsongrass (Sorghum halepense, SORHA); assay: as above; conditions: 14 days after application, scale 0-100
Summary of the method: as §2

[10] = tested on: sicklepod (Cassia obtusifolia, CASOB); assay: as above; conditions: 14 days after application, scale 0-100
Summary of the method: as §2

[11] = tested on: soybean (Glycine max L., var. Pella 86, SOY); assay: Post-emerge greenhouse test, crop damage rating; set-up: key to crop damage rating SOY: 0-100 scale: 0 = no damage, 100 = complete death of all plants; conditions: 14 days after application, scale 0-100
Summary of the method: as §2

[12] = tested on: common ragweed (Ambrosia artemisiifolia L., AMBEL); assay: Post-emerge greenhouse herbicide test, phytotoxicity rating; conditions: 14 days after application, scale 0-100
Text: A standard greenhouse herbicide activity screening system was used to evaluate the herbicidal efficacy and crop safety of these test compounds. Six broadleaf weed species including redroot pigweed (Amaranthus retroflexus, AMARE), velvetleaf (Abutilon theophrasti, ABUTH), sicklepod (Cassia obtusifolia, CASOB), ivyleaf morningglory (Ipomoea hederacea, IPOHE), lambsquarters (Chenopodium album, CHEAL) and common ragweed (Ambrosia artemisiifolia L., AMBEL) were used as test species. Four grass weed species including green foxtail (Setaria viridis, SETVI), barnyardgrass (Echinochloa crusgalli, ECHCG), Johnsongrass (Sorghum halepense, SORHA), and large crabgrass (Digitaria sanguinalis, DIGSA) were also used. In addition, three crop species, field corn (Zea mays L., var. Dekalb 535, CORN), soybean (Glycine max L., var. Pella 86, SOY), and upland rice (Oryza sp., var.Tebonnet, RICE) were included.
All test compounds were dissolved in acetone and applied to the test units in a volume of 187 l/ha. […] Plants were arranged on a shelf so that the top of the canopy (post-emerge) or top of the soil surface (pre-emerge) was 40-45 cm below the nozzle. Pressurized air was used to force the test solution through the nozzle as it was mechanically advanced (via electrically driven chain drive) over the top of all test plants/pots. This application simulates a typical commercial field herbicide application.
In the post-emerge test, a commercial non-ionic surfactant was also included (0.25% v/v) to enhance wetting of the leaf surfaces Qf target plants at rates ranging from 63 g ai/ha to 1000 g ai/ha. For post-emerge tests, seeds were planted 8-21 days prior to the test to allow emergence and good foliage development prior to application of the test substances. At the time of the post-emerge application, plants of all species were usually at the 2-3 leaf stage of development. Post-emerge test units were always bottom-watered.
At 14 days after application of the test materials, phytotoxicity ratings were recorded. A rating scale of 0-100 was used as previously described in Research Methods in Weed Science, 2nd edition, B. Truelove, Ed., Southern Weed Science Society, Auburn University, Auburn, Ala., 1977. Briefly, “0” corresponds to no damage and “100” corresponds to complete death of all plants in the test unit. This scale was used both to determine efficacy against weed species and damage to crop species. Herbicide activity data for various compounds of this invention, which are shown by compound number in Tables 1-9, are shown in Tables 13 and 14.

[13] = tested on: green foxtail (Setaria viridis, SETVI); assay: Pre-emerge greenhouse herbicide test, phytotoxicity rating; conditions: 14 days after application, rating scale 0-100
Summary of the method: as §1

[14] = tested on: ivyleaf morningglory (Ipomoea hederacea, IPOHE); assay: as above; conditions: 14 days after application, rating scale 0-100
Summary of the method: as §1

[15] = tested on: velvetleaf (Abutilon theophrasti, ABUTH); assay: as above; conditions: 14 days after application, rating scale 0-100
Summary of the method: as §1

[16] = tested on: barnyardgrass (Echinochloa crusgalli, ECHCG); assay: as above; conditions: 14 days after application, rating scale 0-100
Summary of the method: as §1

[17] = tested on: lambsquarters (Chenopodium album, CHEAL); assay: as above; conditions: 14 days after application, rating scale 0-100
Summary of the method: as §1

[18] = tested on: large crabgrass (Digitaria sanguinalis, DIGSA); assay: as above; conditions: 14 days after application, rating scale 0-100
Summary of the method: as §1

[19] = tested on: redroot pigweed (Amaranthus retroflexus, AMARE); assay: as above; conditions: 14 days after application, rating scale 0-100
Summary of the method: as §1

[20] = tested on: Johnsongrass (Sorghum halepense, SORHA); assay: as above; conditions: 14 days after application, rating scale 0-100
Summary of the method: as §1

[21] = tested on: sicklepod (Cassia obtusifolia, CASOB); assay: as above; conditions: 14 days after application, rating scale 0-100
Summary of the method: as §1

[22] = tested on: upland rice (Oryza sp., var.Tebonnet, RICE); assay: Post-emerge greenhouse test, crop damage rating; conditions: 14 days after application, scale 0-100
Summary of the method: as §2

[23] = tested on: field corn (Zea mays L., var. Dekalb 535, CORN); assay: Post-emerge greenhouse test, crop damage rating; conditions: 14 days after application, scale 0-100
Summary of the method: as §2

[24] = tested on: upland rice (Oryza sp., var.Tebonnet, RICE); assay: Pre-emerge greenhouse test, crop damage rating; conditions: 14 days after application, rating scale 0-100
Summary of the method: as §1

[25] = tested on: field corn (Zea mays L., var. Dekalb 535, CORN); assay: Pre-emerge greenhouse test, crop damage rating; conditions: 14 days after application, rating scale 0-100
Summary of the method: as §1

CCOC(=O)C(C)Oc1ccc(Oc2cc(-n3c(=O)n4n(c3=O)CCCC4)c(F)cc2Cl)c([N+](=O)[O-])c1 (centres unmarked) [Compound 8-41]
SOY crop damage rating ([1]; Rate 125 g al/ha): 0
SOY crop damage rating ([1]; Rate 250 g al/ha): 0
phytotoxicity rating SETVI ([2]; rate 63 g ai/ha): 0
phytotoxicity rating SETVI ([2]; rate 250 g ai/ha): 0
phytotoxicity rating IPOHE ([3]; rate 63 g ai/ha): 30
phytotoxicity rating IPOHE ([3]; rate 250 g ai/ha): 100
phytotoxicity rating ABUTH ([4]; rate 63 g ai/ha): 95
phytotoxicity rating ABUTH ([4]; rate 250 g ai/ha): 100
phytotoxicity rating ECHCG ([5]; rate 63 g ai/ha): 0
phytotoxicity rating ECHCG ([5]; rate 250 g ai/ha): 0
phytotoxicity rating CHEAL ([6]; rate 63 g ai/ha): 40
phytotoxicity rating CHEAL ([6]; rate 250 g ai/ha): 50
phytotoxicity rating DIGSA ([7]; rate 63 g ai/ha): 0
phytotoxicity rating DIGSA ([7]; rate 250 g ai/ha): 0
phytotoxicity rating AMARE ([8]; rate 63 g ai/ha): 40
phytotoxicity rating AMARE ([8]; rate 250 g ai/ha): 40
phytotoxicity rating SORHA ([9]; rate 63 g ai/ha): 0
phytotoxicity rating SORHA ([9]; rate 250 g ai/ha): 0
phytotoxicity rating CASOB ([10]; rate 63 g ai/ha): 30
phytotoxicity rating CASOB ([10]; rate 250 g ai/ha): 100
crop damage rating SOY ([11]; rate 63 g ai/ha): 30
crop damage rating SOY ([11]; rate 250 g ai/ha): 60
phytotoxicity rating AMBEL ([12]; rate 63 g ai/ha): 00
phytotoxicity rating AMBEL ([12]; rate 250 g ai/ha): 30
SETVI phytotoxicity rating ([13]; Rate 125 g al/ha): 10
SETVI phytotoxicity rating ([13]; Rate 250 g al/ha): 50
IPOHE phytotoxicity rating ([14]; Rate 125 g al/ha): 0
IPOHE phytotoxicity rating ([14]; Rate 250 g al/ha): 0
ABUTH phytotoxicity rating ([15]; Rate 125 g al/ha): 0
ABUTH phytotoxicity rating ([15]; Rate 250 g al/ha): 70
ECHCG phytotoxicity rating ([16]; Rate 125 g al/ha): 0
ECHCG phytotoxicity rating ([16]; Rate 250 g al/ha): 0
CHEAL phytotoxicity rating ([17]; Rate 125 g al/ha): 70
CHEAL phytotoxicity rating ([17]; Rate 250 g al/ha): 90
DIGSA phytotoxicity rating ([18]; Rate 125 g al/ha): 0
DIGSA phytotoxicity rating ([18]; Rate 250 g al/ha): 0
AMARE phytotoxicity rating ([19]; Rate 125 g al/ha): 80
AMARE phytotoxicity rating ([19]; Rate 250 g al/ha): 100
SORHA phytotoxicity rating ([20]; Rate 125 g al/ha): 0
SORHA phytotoxicity rating ([20]; Rate 250 g al/ha): 0
CASOB phytotoxicity rating ([21]; Rate 125 g al/ha): 0
CASOB phytotoxicity rating ([21]; Rate 250 g al/ha): 0
crop damage rating RICE ([22]; rate 63 g ai/ha): 0
crop damage rating RICE ([22]; rate 250 g ai/ha): 0
crop damage rating CORN ([23]; rate 63 g ai/ha): 0
crop damage rating CORN ([23]; rate 250 g ai/ha): 0
RICE crop damage rating ([24]; Rate 125 g al/ha): 0
RICE crop damage rating ([24]; Rate 250 g al/ha): 0
CORN crop damage rating ([25]; Rate 125 g al/ha): 0
CORN crop damage rating ([25]; Rate 250 g al/ha): 0
